Measured values published in patent US10786583B2, “Pre-saturation of the liver and subsequent administration of the contrast agent” (B. Braun Melsungen AG, priority 2013, dated 2020).

How the values were obtained:
[1] = Density measurement of mixtures of MCT and F6H8; assay type: physicochemical; settings: mixture with about 61.5 wt.-% MCT, based on total weight of the oil phase
Source text: By adapting the density of the oil phase to the density of the aqueous phase coalescence phenomena of the droplets as well as sedimentation phenomena, which destabilize the emulsion, can be decreased.

[2] = Solubility of perfluorocarbon contrast agents in oil phase; assay type: physicochemical
Source text: Perfluoroctylbromide (PFOB) is a known contrast agent for the magnetic resonance spectroscopy.

For `CCCCCCCCC(F)(F)C(F)(F)C(F)(F)C(F)(F)C(F)(F)C(F)(F)F` [Example F6H8, perfluorohexyloctane], the “Content of F6H8 in oil phase at which density of the oil mixture corresponds to the density of the aqueous phase” value [1] was “about 38.5 wt.-%”.
With `FC(F)(F)C(F)(F)C(F)(F)C(F)(F)C(F)(F)C(F)(F)C(F)(F)C(F)(F)C(F)(F)C(F)(F)Br` [PFDB, perfluorodecylbromide] the “Solubility in PFOB” value [2] was “can be dissolved in PFOB”.
In the case of `FC(F)(F)C(F)(F)C(F)(F)C(F)(F)C(F)(F)C(F)(F)C(F)(F)C(F)(F)Br` [PFOB, Perfluoroctylbromide, reference compound], the “Solubility in MCT” value [2] was “cannot be dissolved in MCT”.
